From patent publication US8372967B2, “Compounds and methods for modulating expression of GCCR” (Isis Pharmaceuticals, Inc., priority 2006, dated 2013) come the findings set out here.

Strand notation (5' to 3'): a small letter for the sugar, then the base; units joined by * are phosphorothioate-linked, units joined directly phosphodiester-linked; [ ] holds rarer units or linkages, { } end groups; capitals alone tell only the bases. e = 2'-O-(2-methoxyethyl) (MOE); [5mC] = 5-methylcytosine; d = 2'-deoxy (DNA)

The subject of data set [1] is rat DGAT2 mRNA. The data set can be described thus: Dose-dependent inhibition of DGAT2 in A10 cells (Tables 82, 83). It counts as cell-based. Here is the method:
Additional short antisense compounds targeted to DGAT2 mRNA were tested in vitro in a dose-response experiment. A10 cells were prepared as described above and treated with 6.25, 12.5, 25.0, 50.0, 100.0, and 200.0 nM short antisense compounds to determine if DGAT2 inhibition occurs in a dose-dependent manner. […] Results are presented as percent inhibition, relative to untreated control cells.
Additional short antisense compounds targeted to DGAT2 mRNA were tested in vitro. A10 cells were prepared as described above and treated with 0.62, 1.85, 5.56, 16.67, 50.0, and 150.0 nM short antisense compounds to determine if DGAT2 inhibition occurs in a dose-dependent manner. DGAT2 mRNA was measured using quantitative real-time PCR, as described herein. […] Results are presented as percent inhibition of rat DGAT2, relative to untreated control cells.

Data set [2] has as its system PCSK9 mRNA. It counts as cell-based, human. As to conditions: Hep3B cells, 100 nM, relative to untreated control cells; for % Inhib: 0 = no reduction observed. Here is the method: When cells reached appropriate confluency, they were treated with oligonucleotide using LIPOFECTIN® as described. […] Cells were treated and data were obtained in duplicate or triplicate. […] Cells were harvested 16-24 hours after oligonucleotide treatment.
Prior to quantitative PCR analysis, primer-probe sets specific to the target gene being measured were evaluated for their ability to be “multiplexed” with a GAPDH amplification reaction. After isolation the RNA is subjected to sequential reverse transcriptase (RT) reaction and real-time PCR, both of which are performed in the same well. RT and PCR reagents were obtained from Invitrogen Life Technologies (Carlsbad, Calif.). […] The RT reaction was carried out by incubation for 30 minutes at 48° C. Following a 10 minute incubation at 95° C. to activate the PLATIN 9M® Taq, 40 cycles of a two-step PCR protocol were carried out: 95° C. for 15 seconds (denaturation) followed by 60° C. for 1.5 minutes (annealing/extension).
170 μL of RiboGreen® working reagent (RiboGreen® reagent diluted 1:350 in 10 mM Tris-HCl, 1 mM EDTA, pH 7.5) was pipetted into a 96-well plate containing 30 μL purified cellular RNA. The plate was read in a CytoFluor® 4000 (PE Applied Biosystems) with excitation at 485 nm and emission at 530 nm.
Short antisense compounds targeted to a PCSK9 nucleic acid were tested for their effects on PCSK9 mRNA in vitro. The Isis No, gapmer motif and SEQ ID NO of each short antisense compound are shown again in Table 75. Cultured Hep3B cells were treated with 100 nM of short antisense compound. 5-10-5 MOE gapmers targeted to a PCSK9 nucleic acid were used as positive controls. After the treatment period, RNA was isolated from the cells and PCSK9 mRNA levels were measured by quantitative real-time PCR, as described herein. PCSK9 mRNA levels were adjusted according to total RNA content as measured by RIBOGREEN®. Results are presented in Table 75 as percent inhibition of PCSK9 (% Inhib), relative to untreated control cells.

Consider “372562 (antisense eG*eT*d[5mC]*dT*dT*dG*dG*dA*dG*dG*dG*d[5mC]*e[5mC]*eG) [compound 372562]”, for which the “percent inhibition of DGAT2” value was found to be 0% in data set [1] (6.25 nM (Table 82)); 0% in data set [1] (12.5 nM (Table 82)); 36% in data set [1] (50.0 nM (Table 82)); 48% in data set [1] (100.0 nM (Table 82)); 75% in data set [1] (200.0 nM (Table 82)).

Consider “372568 (antisense eG*eA*d[5mC]*dA*d[5mC]*dT*dG*d[5mC]*dA*dG*dG*d[5mC]*e[5mC]*eA) [compound 372568]”, for which the “percent inhibition of DGAT2” value in data set [1] (6.25 nM (Table 82)) was 0%; in data set [1] (12.5 nM (Table 82)), 0%; in data set [1] (50.0 nM (Table 82)), 26%; in data set [1] (100.0 nM (Table 82)) it was 72%; in data set [1] (200.0 nM (Table 82)) it was 69%.

Regarding “400297 (antisense eA*eT*dG*dG*dG*dG*d[5mC]*dA*dA*d[5mC]*dT*dT*e[5mC]*eA) [compound 400297]”, in data set [2], the “% Inhib” value is 0%.

With “400298 (antisense e[5mC]*eA*dT*dG*dG*dG*dG*d[5mC]*dA*dA*d[5mC]*dT*eT*e[5mC]) [compound 400298]”, the “% Inhib” value in data set [2] came out at 0%. “400299 (antisense eA*e[5mC]*dA*dT*dG*dG*dG*dG*d[5mC]*dA*dA*d[5mC]*eT*eT) [compound 400299]”: the “% Inhib” value in data set [2] was found to be 0%. “400300 (antisense eG*eG*dG*dA*dT*dG*d[5mC]*dT*d[5mC]*dT*dG*dG*eG*e[5mC]) [compound 400300]”: the “% Inhib” value in data set [2] stood at 9%. Regarding “400301 (antisense e[5mC]*eG*d[5mC]*dT*d[5mC]*d[5mC]*dA*dG*dG*dT*dT*d[5mC]*e[5mC]*eA) [compound 400301]”, in data set [2], the “% Inhibition Range” value was 20-30% and the “% Inhib” value was 27%. With “400302 (antisense eG*eA*dT*dA*d[5mC]*dA*d[5mC]*d[5mC]*dT*d[5mC]*d[5mC]*dA*e[5mC]*e[5mC]) [compound 400302]”, in data set [2], the “% Inhib” value came to 0%. As to “400303 (antisense eA*eG*dA*dT*dA*d[5mC]*dA*d[5mC]*d[5mC]*dT*d[5mC]*d[5mC]*eA*e[5mC]) [compound 400303]”, the “% Inhib” value in data set [2] is on record as 0%.

Take “400304 (antisense eG*eA*dG*dA*dT*dA*d[5mC]*dA*d[5mC]*d[5mC]*dT*d[5mC]*e[5mC]*eA) [compound 400304]”: in data set [2], the “% Inhibition Range” value is 10-20% and the “% Inhib” value is on record as 11%. As to “400305 (antisense eG*e[5mC]*d[5mC]*dT*dG*dT*d[5mC]*dT*dG*dT*dG*dG*eA*eA) [compound 400305]”, in data set [2], the “% Inhibition Range” value was 30-40% and the “% Inhib” value worked out at 38%. For the substance “400306 (antisense e[5mC]*eT*dG*dT*d[5mC]*dA*d[5mC]*dA*d[5mC]*dT*dT*dG*e[5mC]*eT) [compound 400306]”, in data set [2], the “% Inhibition Range” value is listed as 40-50% and the “% Inhib” value was 40%. Regarding “400310 (antisense eT*e[5mC]*d[5mC]*d[5mC]*dG*dG*d[5mC]*d[5mC]*dG*d[5mC]*dT*dG*eA*e[5mC]) [compound 400310]”, the “% Inhib” value in data set [2] is reported as 8%. Consider “400311 (antisense eA*eT*d[5mC]*d[5mC]*d[5mC]*dG*dG*d[5mC]*d[5mC]*dG*d[5mC]*dT*eG*eA) [compound 400311]”, for which, in data set [2], the “% Inhibition Range” value was 10-20% and the “% Inhib” value worked out at 18%. For the substance “400312 (antisense e[5mC]*eA*dT*d[5mC]*d[5mC]*d[5mC]*dG*dG*d[5mC]*d[5mC]*dG*d[5mC]*eT*eG) [compound 400312]”, in data set [2], the “% Inhibition Range” value is reported as 20-30% and the “% Inhib” value turned out to be 28%.

On to “400313 (antisense eG*e[5mC]*dA*dT*d[5mC]*d[5mC]*d[5mC]*dG*dG*d[5mC]*d[5mC]*dG*e[5mC]*eT) [compound 400313]”, for which, in data set [2], the “% Inhibition Range” value is 10-20% and the “% Inhib” value came to 10%.

Turning to “400314 (antisense eG*eT*dG*d[5mC]*d[5mC]*d[5mC]*dT*dT*d[5mC]*d[5mC]*d[5mC]*dT*eT*eG) [compound 400314]”, in data set [2], the “% Inhibition Range” value is recorded as 20-30% and the “% Inhib” value is 26%.

With “400315 (antisense eA*eT*dG*dA*dG*dG*dG*dT*dG*d[5mC]*d[5mC]*dG*e[5mC]*eT) [compound 400315]”, the “% Inhib” value in data set [2] was determined as 0%. With “400316 (antisense eT*eA*dT*dG*dA*dG*dG*dG*dT*dG*d[5mC]*d[5mC]*eG*e[5mC]) [compound 400316]”, the “% Inhib” value in data set [2] was 8%. As for “400317 (antisense e[5mC]*eT*dA*dT*dG*dA*dG*dG*dG*dT*dG*d[5mC]*e[5mC]*eG) [compound 400317]”, the “% Inhib” value in data set [2] came to 7%. For “400318 (antisense e[5mC]*e[5mC]*dT*dA*dT*dG*dA*dG*dG*dG*dT*dG*e[5mC]*e[5mC]) [compound 400318]”, in data set [2], the “% Inhibition Range” value was 20-30% and the “% Inhib” value was 26%. As to “400319 (antisense e[5mC]*eG*dA*dA*dT*dA*dA*dA*d[5mC]*dT*d[5mC]*d[5mC]*eA*eG) [compound 400319]”, the “% Inhib” value in data set [2] is given as 0%. Same read-out and setting: to “400320 (antisense e[5mC]*e[5mC]*dG*dA*dA*dT*dA*dA*dA*d[5mC]*dT*d[5mC]*e[5mC]*eA) [compound 400320]” belongs 0%; to “400321 (antisense eT*e[5mC]*d[5mC]*dG*dA*dA*dT*dA*dA*dA*d[5mC]*dT*e[5mC]*e[5mC]) [compound 400321]”, 0%; to “400322 (antisense eT*eT*d[5mC]*d[5mC]*dG*dA*dA*dT*dA*dA*dA*d[5mC]*eT*e[5mC]) [compound 400322]”, 0%.

For “400323 (antisense eG*e[5mC]*d[5mC]*dA*dG*dG*dG*dG*d[5mC]*dA*dG*d[5mC]*eA*eG) [compound 400323]”, in data set [2], the “% Inhib” value came to 0%. As to “400324 (antisense eG*eA*dG*dT*dA*dG*dA*dG*dG*d[5mC]*dA*dG*eG*e[5mC]) [compound 400324]”, the “% Inhib” value in data set [2] is given as 7%. As for “400325 (antisense e[5mC]*e[5mC]*d[5mC]*d[5mC]*dA*dA*dA*dG*dT*d[5mC]*d[5mC]*d[5mC]*e[5mC]*eA) [compound 400325]”, the “% Inhib” value in data set [2] turned out to be 4%. The same measure, in the same setting: to “400326 (antisense eT*e[5mC]*d[5mC]*d[5mC]*d[5mC]*dA*dA*dA*dG*dT*d[5mC]*d[5mC]*e[5mC]*e[5mC]) [compound 400326]” belongs 0%.

For “400328 (antisense eA*e[5mC]*dG*dT*dG*dG*dG*d[5mC]*dA*dG*d[5mC]*dA*eG*e[5mC]) [compound 400328]”, in data set [2], the “% Inhibition Range” value is reported as 10-20% and the “% Inhib” value was determined as 13%.

On to “400329 (antisense e[5mC]*eA*d[5mC]*dG*dT*dG*dG*dG*d[5mC]*dA*dG*d[5mC]*eA*eG) [compound 400329]”, for which, in data set [2], the “% Inhibition Range” value is on record as 10-20% and the “% Inhib” value is recorded as 14%. “400332 (antisense e[5mC]*eA*dG*dG*dG*dA*dA*d[5mC]*d[5mC]*dA*dG*dG*e[5mC]*e[5mC]) [compound 400332]”: the “% Inhib” value in data set [2] came to 0%.

Consider “400333 (antisense eT*e[5mC]*dA*dG*dG*dG*dA*dA*d[5mC]*d[5mC]*dA*dG*eG*e[5mC]) [compound 400333]”, for which, in data set [2], the “% Inhib” value turned out to be 0%.

For “400334 (antisense e[5mC]*eT*d[5mC]*dA*dG*dG*dG*dA*dA*d[5mC]*d[5mC]*dA*eG*eG) [compound 400334]”, in data set [2], the “% Inhib” value came out at 0%. In the case of “400335 (antisense e[5mC]*e[5mC]*dT*d[5mC]*dA*dG*dG*dG*dA*dA*d[5mC]*d[5mC]*eA*eG) [compound 400335]”, the “% Inhib” value in data set [2] came out at 0%. Take “400336 (antisense eT*e[5mC]*d[5mC]*dT*d[5mC]*dA*dG*dG*dG*dA*dA*d[5mC]*e[5mC]*eA) [compound 400336]”: the “% Inhib” value in data set [2] came to 4%. As to “400337 (antisense eG*eT*d[5mC]*d[5mC]*dT*d[5mC]*dA*dG*dG*dG*dA*dA*e[5mC]*e[5mC]) [compound 400337]”, in data set [2], the “% Inhib” value was determined as 0%. For the substance “400338 (antisense eG*eG*dT*d[5mC]*d[5mC]*dT*d[5mC]*dA*dG*dG*dG*dA*eA*e[5mC]) [compound 400338]”, in data set [2], the “% Inhib” value turned out to be 9%.
